Our source for the logFC.mWT.over.mEQ values is patent US20240368668A1, “SUBSTRATES AND BIOMARKERS OF ADAMTS7” (The Broad Institute, Inc., priority 2021, published 2024).

Square brackets hold non-standard residues; d marks the D form. Ends that are not written are not given here. Met(O) = CS(=O)CC[C@H](N)C(=O)O

One assay relates to mouse ADAMTS7. The assay is described as follows: TMT10 TAILS N-terminomics, SMC2 experiment (process replicates, trypsin/AspN digest). The assay is classed as cell-based. Particulars: SMC2_TAILS HC; log fold change of N-terminal peptide, Ad-mADAMTS7 WT over EQ. The procedure, abridged:
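Full-length mouse ADAMTS7 (WT or E373Q mutant, C-terminal 3xFLAG) or luciferase was transduced via adenovirus, 50 MOI, into HCA-SMC (SMC1, SMC2) or HUVEC. SMC1: pooled media, technical triplicates 400 ug; SMC2: process triplicates 300 ug; HUVEC: process triplicates 200 ug, bFGF2 10 ng/ml.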
Turning to “LOXL1_218 (AVASAGVIYPYQPR; listed as Homo sapiens)”, the logFC.mWT.over.mEQ turned out to be 1.83.
The same measure, in the same setting: with “LOXL2_45 (HQPQAPANVAKIQLR; listed as Homo sapiens)” the figure was 2.51.
Same read-out and setting: to “LTBP2_79 (VAGLQPVER; listed as Homo sapiens)” belongs 1.62; to “LTBP2_250 (SAAGEGTLAR; listed as Homo sapiens)”, 2.70.
The same measure, in the same setting: to “LTBP2_290 (QHVGLSR; listed as Homo sapiens)” belongs 3.05; to “LTBP2_502 (LVENSVETRPPPWLPASPGHSLW; listed as Homo sapiens)”, 2.85; to “LTBP3_103 (LTGSGFR; listed as Homo sapiens)”, 5.72.
In the case of “LTBP3_208 (FLVPLGPGQISA; listed as Homo sapiens)”, the logFC.mWT.over.mEQ was 1.53.
Turning to “MAP4_815 (AVASTGPSSR; listed as Homo sapiens)”, the logFC.mWT.over.mEQ amounted to 1.70.
Regarding “MAP4_816 (VASTGPSSR; listed as Homo sapiens)”, the logFC.mWT.over.mEQ was determined as 2.51.
On the same count and under the same terms, to “MMP1_100 (FVLTEGNPR; listed as Homo sapiens)” belongs 2.39.
Consider “MMP1_185 (FQPGPGIGG; listed as Homo sapiens)”, for which the logFC.mWT.over.mEQ is 1.46.
As for “NBEA_1892 (LEKVAPLLR; listed as Homo sapiens)”, the logFC.mWT.over.mEQ is reported as 2.12.
On the same count and under the same terms, to “NID1_360 (FHQQHPQVI; listed as Homo sapiens)” belongs 2.69; to “NID2_291 (HSSVPLGR; listed as Homo sapiens)”, 3.16.
As to “NID2_951 (YAYPGAR; listed as Homo sapiens)”, the logFC.mWT.over.mEQ is reported as 2.80.
Regarding “PAK4_141 (HSEAGGGSG; listed as Homo sapiens)”, the logFC.mWT.over.mEQ amounted to 1.78.
“PLIN3_75 (VSGAQPILSKL; listed as Homo sapiens)” returned a logFC.mWT.over.mEQ of 2.25.
Consider “POSTN_727 (IITGPEIKYTR; listed as Homo sapiens)”, for which the logFC.mWT.over.mEQ is 2.60.
Same read-out and setting: with “PPP1R18_295 (LSETLTR; listed as Homo sapiens)” the figure was 2.32; with “PTPRF_1859 (MRYEGVVDMFQTVKTLR; listed as Homo sapiens)”, 2.59.
Take “QSOX1_210 (HKGVAVR; listed as Homo sapiens)”: the logFC.mWT.over.mEQ is on record as 1.69.
The substance “SHC2_267 (VAKDPINQRACHIL; listed as Homo sapiens)” had a logFC.mWT.over.mEQ of 1.85.
The same measure, in the same setting: to “SPOCK1_27 (LAGGAGPNHGNFL; listed as Homo sapiens)” belongs 2.69.
The substance “SRGN_59 (LLPGESNKIPR; listed as Homo sapiens)” registered a logFC.mWT.over.mEQ of 3.66.
On to “TNPO2_744 (VQ[Met(O)]VLNNLVEII[code n]RP[code n]TPKTLLE; listed as Homo sapiens)”, for which the logFC.mWT.over.mEQ worked out at 4.02.
In turn, “TNS1_236 (QEGLAGYQR; listed as Homo sapiens)” displayed a logFC.mWT.over.mEQ of 2.08.
Take “TRGC2_86 (HRCIVRHENNK; listed as Homo sapiens)”: the logFC.mWT.over.mEQ is on record as 2.93.
In turn, “TTN_5975 (VKEPPVEFTKPL; listed as Homo sapiens)” returned a logFC.mWT.over.mEQ of 3.34.
The substance “VAT1_42 (AASPPLLR; listed as Homo sapiens)” displayed a logFC.mWT.over.mEQ of 2.95.
For the substance “VIM_314 (QESTEYR; listed as Homo sapiens)”, the logFC.mWT.over.mEQ stood at 3.28.
As for “VIM_333 (LKGTNESLER; listed as Homo sapiens)”, the logFC.mWT.over.mEQ came out at 3.84.

Staying with this assay, now noted: SMC2_TAILS HC; log fold change, mWT over mEQ.
On to “COL1A2_80 (QYDGKGVGLGPGPMGLMGPR; listed as Homo sapiens)”, for which the logFC.mWT.over.mEQ turned out to be 1.15.
Substance “COL1A2_270 (VGNAGPAGPAGPR; listed as Homo sapiens)” gave a logFC.mWT.over.mEQ of 3.47.
In the case of “COL1A2_305 (LTGAKGAAGLPGVAGAPGLPGPR; listed as Homo sapiens)”, the logFC.mWT.over.mEQ was 1.92.
Take “COL1A2_630 (VGTAGPSGPSGLPGER; listed as Homo sapiens)”: the logFC.mWT.over.mEQ was found to be 2.33.
For “COL1A2_866 (LLGAPGILGLPGSR; listed as Homo sapiens)”, the logFC.mWT.over.mEQ was determined as 3.22.
Substance “COL1A2_960 (AGAPGPHGPVGPAGKHGNR; listed as Homo sapiens)” registered a logFC.mWT.over.mEQ of 2.87.
Turning to “COL1A2_1028 (LQGLPGIAGHHGDQGAPGSVGPAGPR; listed as Homo sapiens)”, the logFC.mWT.over.mEQ worked out at 1.98.
Substance “COL4A2_71 (YNGPPGLQGFPGLQGR; listed as Homo sapiens)” returned a logFC.mWT.over.mEQ of 1.70.
Substance “COL18A1_1505 (LQPPVVQLHDSNPYPR; listed as Homo sapiens)” gave a logFC.mWT.over.mEQ of 1.47.

Still in this assay, the particulars now being: log fold change, ADAMTS7 WT over EQ.
“SERBP1_56 (QAAAQTNSNAAGKQLR; listed as Homo sapiens)” yielded a logFC.mWT.over.mEQ of 4.06.
Consider “SRGN_59 (LLPGESNKIPR; listed as Homo sapiens)”, for which the logFC.mWT.over.mEQ is 4.33.
On to “THBS2_290 (LSENLKR; listed as Homo sapiens)”, for which the logFC.mWT.over.mEQ was determined as 4.05.
“VIM_314 (QESTEYR; listed as Homo sapiens)” had a logFC.mWT.over.mEQ of 2.60.
Still for that read-out and setting: with “VIM_333 (LKGTNESLER; listed as Homo sapiens)” the figure was 4.39.
